This note sets out measurements from patent US11572341B2, “Biguanide compound and use thereof” (ImmunoMet Therapeutics Inc., priority 2014, dated 2023).

For one assay, the system named is AMPKa [pT172]. The experiment in a line: AMPKa activation [pT172] in MCF7 cell. Format: cell-based.
For another assay, the system named is HCT116 cells. Nature of the assay: Inhibitory effect against cancer cell proliferation (MTT). It counts as cell-based, human. Conditions: read-out: IC50 (uM) @ HCT116. Here is the method: The formazane crystals thus formed were dissolved using dimethyl sulfoxide (DMSO) and absorbance of the solution was measured at 560 nm. After culturing for 48 hours, […] synthesized in Examples was indicated as cell viability (%) according to each treated concentration.

The mark [1] stands for this setting: Homo sapiens, HCT-116, HCT116, MTT, 48 hours.

Broadly, the IC50 is the concentration that inhibits the measured activity by half.

Like-named read-outs stand apart in the source and are kept apart here. A value given as a limit tells only on which side of the number the result lay.

Take `CCCc1ccccc1NC(=N)NC(=N)N1CCCCC1.Cl` [Example 74, N1-piperidin-N5-(2-propyl)phenyl Biguanide Hydrochloride]: the results for the “AMPKa activation [pT172] (Unit/ml) @ MCF7 cell” value (“AMPKa activation [pT172]” below) with AMPKa [pT172] (5 uM), in the assay on AMPKa [pT172] (10 uM) and with AMPKa [pT172] (50 uM) were 4.9 Unit/ml, 5.3 Unit/ml and 8.3 Unit/ml, respectively. Also, the IC50 with HCT116 cells (setting [1]) was found to be 48.3 µM.

Consider `CCOC1CCN(C(=N)NC(=N)Nc2ccc(OC(F)(F)F)cc2)CC1.Cl` [Example 26, N1-(4-ethoxy)piperidin-N5-(4-trifluoromethoxy)phenyl Biguanide Hydrochloride], for which the “AMPKa activation [pT172]” value is on record as 3.6 Unit/ml in the assay with AMPKa [pT172] (5 uM), 6.6 Unit/ml in the assay on AMPKa [pT172] (10 uM) and “cell death” with AMPKa [pT172] (50 uM). Moreover, the IC50 in the assay with HCT116 cells (setting [1]) is 9.7 µM.

In the case of `Cl.N=C(N)NC(=N)N1CCCCC1` [Example 123, N1-piperidine Biguanide Hydrochloride], the “AMPKa activation [pT172]” value is 6.6 Unit/ml in the assay with AMPKa [pT172] (5 uM), 7.5 Unit/ml in the assay on AMPKa [pT172] (10 uM) and 12.6 Unit/ml in the assay with AMPKa [pT172] (50 uM). For the same molecule, in the assay on HCT116 cells (setting [1]), the IC50 is over 100 µM.

As to `CC1CCN(C(=N)NC(=N)Nc2ccc(Cl)c(C(F)(F)F)c2)CC1.Cl` [Example 58, N1-(4-methyl)piperidin-N5-(3-trifluoromethyl-4-chloro)phenyl Biguanide Hydrochloride], the “AMPKa activation [pT172]” value with AMPKa [pT172] (5 uM) is 2.5 Unit/ml; in the assay on AMPKa [pT172] (10 uM), 5.0 Unit/ml; in the assay on AMPKa [pT172] (50 uM), “cell death”. Moreover, the IC50 in the assay on HCT116 cells (setting [1]) was 2.3 µM.

For the molecule “N1-(3,5-dimethyl)piperidin-N5-(4-trifluoromethyl)phenyl Biguanide Hydrochloride [Example 63]”, the “AMPKa activation [pT172]” value in the assay on AMPKa [pT172] (5 uM) is on record as 15.1 Unit/ml; in the assay on AMPKa [pT172] (10 uM), 22.9 Unit/ml; in the assay with AMPKa [pT172] (50 uM), “cell death”. Further, in the assay with HCT116 cells (HCT116, MTT, 48 hours), the IC50 amounted to 2.8 µM.

`CCCCNC(=N)NC(=N)N1CCN(C)CC1.Cl` [Example 36, N1-(4-methy)piperazin-N5-butyl Biguanide Hydrochloride]: the “AMPKa activation [pT172]” value in the assay with AMPKa [pT172] (5 uM) is 5.5 Unit/ml; with AMPKa [pT172] (10 uM), 5.8 Unit/ml; in the assay with AMPKa [pT172] (50 uM), 4.8 Unit/ml. Further, the IC50 with HCT116 cells (setting [1]) was over 100 µM.

For the molecule `CN1CCN(C(=N)NC(=N)Nc2ccc(C(F)(F)F)cc2)CC1.Cl` [Example 19, N1-(4-methyl)piperazin-N5-(4-trifluoromethyl)phenyl Biguanide Hydrochloride], the results for the “AMPKa activation [pT172]” value in the assay on AMPKa [pT172] (5 uM), in the assay on AMPKa [pT172] (10 uM) and with AMPKa [pT172] (50 uM) were 3.3 Unit/ml, 4.3 Unit/ml and 15.3 Unit/ml, respectively. The IC50 in the assay with HCT116 cells (setting [1]) amounted to 41.7 µM.

Take `Cl.N=C(N)NC(=N)N(C1CCCCC1)C1CCCCC1` [Example 136, N1,N1-dicyclohexyl Biguanide Hydrochloride]: in the assay on AMPKa [pT172] (50 uM), the “AMPKa activation [pT172]” value is 5.9 Unit/ml. Also, the IC50 in the assay with HCT116 cells (setting [1]) was over 100 µM.

As for `Cl.N=C(N)NC(=N)Nc1ccc(Cl)cc1` [Example 110, N1-(4-chloro)phenyl Biguanide Hydrochloride], the “AMPKa activation [pT172]” value with AMPKa [pT172] (50 uM) stood at 3.9 Unit/ml. Besides, the IC50 in the assay with HCT116 cells (Homo sapiens, HCT-116, 48 h) is 97.2 µM.

With `Cl.N=C(NCc1ccccc1Cl)NC(=N)N1CCCCC1` [Example 12, N1-piperidin-N5-(2-chloro)benzyl Biguanide Hydrochloride], the “AMPKa activation [pT172]” value in the assay with AMPKa [pT172] (50 uM) is listed as 3.1 Unit/ml. Also, the IC50 in the assay on HCT116 cells (setting [1]) is over 100 µM.

Consider `CN1CCN(C(=N)NC(=N)NCc2ccccc2Cl)CC1.Cl` [Example 32, N1-(4-methyl)piperazin-N5-(2-chloro)benzyl Biguanide Hydrochloride], for which the “AMPKa activation [pT172]” value amounted to 5.5 Unit/ml in the assay with AMPKa [pT172] (5 uM), 5.2 Unit/ml in the assay on AMPKa [pT172] (10 uM) and 5.3 Unit/ml in the assay with AMPKa [pT172] (50 uM). The IC50 in the assay with HCT116 cells (setting [1]) was over 100 µM.

For the molecule `CC(C)NC(=N)NC(=N)Nc1ccc(Cl)cc1.Cl` [Example 17, N1-isopropyl-N5-(4-chloro)phenyl Biguanide Hydrochloride], the “AMPKa activation [pT172]” value was 10.2 Unit/ml in the assay on AMPKa [pT172] (5 uM), 10.8 Unit/ml in the assay with AMPKa [pT172] (10 uM) and 55.7 Unit/ml with AMPKa [pT172] (50 uM). Besides, the IC50 in the assay with HCT116 cells (setting [1]) turned out to be 35.1 µM.

For `CN1CCN(C(=N)NC(=N)Nc2cccc(Cl)c2)CC1.Cl` [Example 29, N1-(4-methyl)piperazin-N5-(3-chloro)phenyl Biguanide Hydrochloride], the “AMPKa activation [pT172]” value was found to be 4.0 Unit/ml in the assay on AMPKa [pT172] (5 uM), 5.4 Unit/ml with AMPKa [pT172] (10 uM) and 6.8 Unit/ml in the assay on AMPKa [pT172] (50 uM). The IC50 in the assay on HCT116 cells (setting [1]) was over 100 µM.

As to `Cl.N=C(N)NC(=N)NCc1ccccc1` [Example 124, N1-benzyl Biguanide Hydrochloride], in the assay on AMPKa [pT172] (50 uM), the “AMPKa activation [pT172]” value amounted to 8.4 Unit/ml. The IC50 with HCT116 cells (setting [1]) came to 56.7 µM.

`CC1CCN(C(=N)NC(=N)Nc2ccc(F)cc2)CC1.Cl` [Example 56, N1-(4-methyl)piperidin-N5-(4-fluoro)phenyl Biguanide Hydrochloride]: the “AMPKa activation [pT172]” value in the assay with AMPKa [pT172] (5 uM) is 2.7 Unit/ml; with AMPKa [pT172] (10 uM) it was 4.8 Unit/ml; in the assay with AMPKa [pT172] (50 uM), 15.4 Unit/ml. For the same molecule, the concentration for half-maximal inhibition (IC50) in the assay on HCT116 cells (setting [1]) came out at 48.8 µM.

Turning to `CC1CCN(C(=N)NC(=N)Nc2cccc(OC(F)(F)F)c2)CC1.Cl` [Example 49, N1-(4-methy)piperidin-N5-(3-trifluoromethoxy)phenyl Biguanide Hydrochloride], the “AMPKa activation [pT172]” value is 9.3 Unit/ml in the assay on AMPKa [pT172] (5 uM), 13.7 Unit/ml in the assay on AMPKa [pT172] (10 uM) and “cell death” in the assay with AMPKa [pT172] (50 uM). Besides, in the assay with HCT116 cells (setting [1]), the IC50 amounted to 5.1 µM.

As for `CC1CCN(C(=N)NC(=N)NCc2ccc(C(F)(F)F)cc2)CC1.Cl` [Example 61, N1 (4-methyl)piperidin-N5-(4-trifluoromethyl)benzyl Biguanide Hydrochloride], the “AMPKa activation [pT172]” value was 6.4 Unit/ml in the assay with AMPKa [pT172] (5 uM), 11.8 Unit/ml with AMPKa [pT172] (10 uM) and 12.3 Unit/ml in the assay with AMPKa [pT172] (50 uM). Also, the IC50 with HCT116 cells (setting [1]) was 12.6 µM.

Turning to `CC1CCN(C(=N)NC(=N)Nc2ccc(F)c(C(F)(F)F)c2)CC1.Cl` [Example 54, N1-(4-methyl)piperidin-N5-(3-trifluoromethyl-4-fluoro)phenyl Biguanide Hydrochloride], the “AMPKa activation [pT172]” value is listed as 4.9 Unit/ml with AMPKa [pT172] (5 uM), 8.9 Unit/ml with AMPKa [pT172] (10 uM) and “cell death” with AMPKa [pT172] (50 uM). The IC50 in the assay on HCT116 cells (setting [1]) was determined as 6.7 µM.

`CCCc1ccccc1NC(=N)NC(=N)N.Cl` [Example 121, N1-(2-propyl)phenyl Biguanide Hydrochloride]: the “AMPKa activation [pT172]” value with AMPKa [pT172] (50 uM) amounted to 9.0 Unit/ml. Further, in the assay on HCT116 cells (setting [1]), the half-maximal inhibitory concentration (IC50) was over 100 µM.

For the molecule `Cl.N=C(N)NC(=N)Nc1ccc(C(F)(F)F)cc1` [Example 128, N1-(4-trifluoromethyl)phenyl Biguanide Hydrochloride], the “AMPKa activation [pT172]” value in the assay with AMPKa [pT172] (5 uM) was found to be 7.6 Unit/ml; in the assay with AMPKa [pT172] (10 uM) it was 7.1 Unit/ml; in the assay with AMPKa [pT172] (50 uM) it was 8.8 Unit/ml. For the same molecule, the IC50 with HCT116 cells (setting [1]) is over 100 µM.

Consider `CN1CCN(C(=N)NC(=N)Nc2cc(F)cc(F)c2)CC1.Cl` [Example 39, N1-(4-methyl)piperazin-N5-(3,5-difluoro)phenyl Biguanide Hydrochloride], for which the “AMPKa activation [pT172]” value in the assay on AMPKa [pT172] (5 uM) stood at 6.2 Unit/ml; in the assay with AMPKa [pT172] (10 uM), 7.1 Unit/ml; in the assay with AMPKa [pT172] (50 uM) it was 8.2 Unit/ml. Besides, the IC50 in the assay on HCT116 cells (setting [1]) is over 100 µM.

In the case of `COc1ccc(NC(=N)NC(=N)N)cc1.Cl` [Example 120, N1-(4-methoxy)phenyl Biguanide Hydrochloride], the “AMPKa activation [pT172]” value in the assay on AMPKa [pT172] (50 uM) came out at 8.1 Unit/ml. Moreover, in the assay with HCT116 cells (setting [1]), the IC50 was over 100 µM.

Regarding `Cl.N=C(N)NC(=N)NCc1ccc(C(F)(F)F)cc1` [Example 141, N1-(4-trifluoromethyl)benzyl Biguanide Hydrochloride], the “AMPKa activation [pT172]” value in the assay with AMPKa [pT172] (5 uM) is listed as 5.6 Unit/ml; with AMPKa [pT172] (10 uM), 6.1 Unit/ml; with AMPKa [pT172] (50 uM), 10.3 Unit/ml. For the same molecule, the IC50 with HCT116 cells (setting [1]) was over 100 µM.

With `CC(=O)Nc1ccc(NC(=N)NC(=N)N)cc1.Cl` [Example 125, N1-4-(N-acetylamino)phenyl Biguanide Hydrochloride], the “AMPKa activation [pT172]” value with AMPKa [pT172] (50 uM) is on record as 5.0 Unit/ml. Besides, in the assay with HCT116 cells (setting [1]), the IC50 is over 100 µM.

For the molecule `CC1CCN(C(=N)NC(=N)Nc2ccc(OC(F)(F)F)c(F)c2)CC1.Cl` [Example 59, N1-(4-methyl)piperidin-N5-(3-fluoro-4-trifluoromethoxy)phenyl Biguanide Hydrochloride], the results for the “AMPKa activation [pT172]” value in the assay on AMPKa [pT172] (5 uM), in the assay with AMPKa [pT172] (10 uM) and in the assay on AMPKa [pT172] (50 uM) were 9.8 Unit/ml, 13.3 Unit/ml and “cell death”, respectively. The IC50 in the assay on HCT116 cells (setting [1]) is 2.3 µM.

Regarding `CCCN(CCC)C(=N)NC(=N)N1CCCCC1.Cl` [Example 8, N1,N1-dipropyl-N5-piperidine Biguanide Hydrochloride], the “AMPKa activation [pT172]” value in the assay with AMPKa [pT172] (5 uM) came out at 10.8 Unit/ml; with AMPKa [pT172] (10 uM) it was 12.5 Unit/ml; in the assay on AMPKa [pT172] (50 uM) it was 19.3 Unit/ml. Besides, the IC50 in the assay on HCT116 cells (setting [1]) is over 100 µM.
